The results in this text go back to PMC8669469, “A Novel Locally c-di-GMP-Controlled Exopolysaccharide Synthase Required for Bacteriophage N4 Infection of Escherichia coli” (mBio, 2021).

The target of the experiment is T1, NfrB (Escherichia coli, UniProt P0AFA5).
T1 construct: soluble MshEN domain, NfrB^414-745
The experiment can be described thus: microscale thermophoresis with purified protein; DRaCALA with […]-c-di-GMP and competition by unlabeled c-di-GMP. The format is binding.

T1 sequence (P0AFA5 414-745): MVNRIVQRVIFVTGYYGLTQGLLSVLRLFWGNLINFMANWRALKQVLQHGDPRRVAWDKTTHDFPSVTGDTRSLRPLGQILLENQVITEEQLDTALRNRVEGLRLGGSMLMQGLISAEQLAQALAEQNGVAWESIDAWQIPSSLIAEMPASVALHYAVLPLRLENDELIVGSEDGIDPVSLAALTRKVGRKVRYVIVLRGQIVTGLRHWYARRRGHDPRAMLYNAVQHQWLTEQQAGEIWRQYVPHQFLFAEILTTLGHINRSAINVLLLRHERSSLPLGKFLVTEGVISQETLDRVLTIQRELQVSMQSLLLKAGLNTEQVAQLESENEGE

Consider `Nc1nc2c(ncn2[C@@H]2O[C@@H]3CO[P@](=O)(O)O[C@H]4[C@@H](O)[C@H](n5cnc6c(=O)[nH]c(N)nc65)O[C@@H]4CO[P@](=O)(O)O[C@H]3[C@H]2O)c(=O)[nH]1` [c-di-GMP], for which the affinity, expressed as Kd, was 1000 ± 350 nM.
